Data on four compounds can be found in US20250270190A1, “KIT INHIBITORS” (BLUEPRINT MEDICINES CORPORATION, priority 2022, published 2025).

T1 sequence (P10721 26-976 V560G/V654A): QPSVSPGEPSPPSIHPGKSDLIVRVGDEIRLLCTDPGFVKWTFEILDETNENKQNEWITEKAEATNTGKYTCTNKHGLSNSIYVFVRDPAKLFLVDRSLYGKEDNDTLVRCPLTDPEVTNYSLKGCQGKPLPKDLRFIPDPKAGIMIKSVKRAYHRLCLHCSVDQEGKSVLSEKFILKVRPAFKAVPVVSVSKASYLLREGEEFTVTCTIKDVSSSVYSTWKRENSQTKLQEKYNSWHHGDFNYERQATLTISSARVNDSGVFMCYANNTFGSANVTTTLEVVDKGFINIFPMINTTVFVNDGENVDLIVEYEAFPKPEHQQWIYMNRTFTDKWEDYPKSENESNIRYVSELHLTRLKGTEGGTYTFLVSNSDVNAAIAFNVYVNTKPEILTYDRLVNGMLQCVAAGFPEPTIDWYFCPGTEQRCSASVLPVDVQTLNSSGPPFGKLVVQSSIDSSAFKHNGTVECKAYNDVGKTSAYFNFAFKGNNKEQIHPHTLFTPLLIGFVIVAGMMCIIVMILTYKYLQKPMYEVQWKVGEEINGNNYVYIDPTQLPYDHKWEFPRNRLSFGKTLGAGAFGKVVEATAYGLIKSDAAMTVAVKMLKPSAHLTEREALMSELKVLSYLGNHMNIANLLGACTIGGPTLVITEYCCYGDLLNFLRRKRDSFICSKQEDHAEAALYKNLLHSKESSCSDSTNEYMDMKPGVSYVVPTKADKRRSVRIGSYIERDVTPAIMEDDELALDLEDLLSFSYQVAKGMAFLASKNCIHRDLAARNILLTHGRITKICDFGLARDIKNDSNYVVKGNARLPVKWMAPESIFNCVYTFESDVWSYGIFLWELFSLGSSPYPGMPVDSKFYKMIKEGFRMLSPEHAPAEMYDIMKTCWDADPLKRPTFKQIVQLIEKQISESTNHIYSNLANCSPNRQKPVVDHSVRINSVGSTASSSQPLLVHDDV

This assay concerns the target T1, c-kit autophosphorylation (Phospho c-Kit Tyr721) in HMC 1.1 (exon 11/13) cells, V654A (Homo sapiens, UniProt P10721, V560G/V654A).
T1 construct: endogenous in cells; host or cells: HMC 1.1 (exon 11/13) cells
Briefly: pKIT Meso Scale Discovery (MSD) assay, inhibition of autophosphorylation of KIT, HMC1.1_V654A. The note with it: Table 1, cell line not named for Table 1, b1056 names pKIT HMC1.1_V654A, read-out: Code (IC50 for inhibition of autophosphorylation of KIT, pKIT MSD assay). It counts as cell-based. In outline:
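HMC1.1 cells were serum-starved for 4 h in serum-free, iron-free, phenol red-free IMDM, then treated with compound in dose-response for 90 min at 37 °C. Staurosporine and DMSO served as controls. Lysates were analysed by MSD electrochemiluminescence immunoassay for phospho-c-Kit Tyr721, and % inhibition of autophosphorylation was derived.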
As for `Nc1cc(Nc2cc(OC3CC3)c(-c3cnn(C[C@@H]4CCN4)c3)cn2)nc(C(F)F)n1` (single isomer, unassigned) [Compound 162, (S)-N4-(5-(1-(azetidin-2-ylmethyl)-1H-pyrazol-4-yl)-4-cyclopropoxypyridin-2-yl)-2-(difluoromethyl)pyrimidine-4,6-diamine or (R)-N4-(5-(1-(azetidin-2-ylmethyl)-1H-pyrazol-4-yl)-4-cyclopropoxypyridin-2-yl)-2-(difluoromethyl)pyrimidine-4,6-diamine], the IC50 is under 10 nM.

As for `C[C@@H](CF)Nc1cc(Nc2cc(N)nc(C(F)F)n2)ncc1C(=O)NCc1cocn1` [Compound 176, (S)-6-((6-amino-2-(difluoromethyl)pyrimidin-4-yl)amino)-4-((1-fluoropropan-2-yl)amino)-N-(oxazol-4-ylmethyl)nicotinamide], the IC50 was under 10 nM.

Consider `CNc1cc(Nc2cc(N)nc(CF)n2)ncc1C(=O)NC1CC1` [Compound 7, 6-((6-amino-2-(fluoromethyl)pyrimidin-4-yl)amino)-N-cyclopropyl-4-(methylamino)nicotinamide], for which the IC50 fell in the range of 10 to 40 nM.

For `CNC(=O)c1cnc(Nc2cc(N)nc(C(F)F)n2)cc1NC(CF)CF` [Compound 75, 6-((6-amino-2-(difluoromethyl)pyrimidin-4-yl)amino)-4-((1,3-difluoropropan-2-yl)amino)-N-methylnicotinamide], the IC50 is under 10 nM.
